# Experimental data: ChEMBL document CHEMBL6078680, “Improving the Stability and Anti-Infective Activity of Sea Turtle AMPs Using Multiple Structural Modification Strategies” (J Med Chem, 2024)
# Active and inactive are the calls of the source. The rule behind the calls is not given here. Positions of bridges follow the written chain, without caps; N, C: chain ends. Non-standard residues stand in square brackets, D forms with d. Residues, ends and D or L forms follow the SMILES beside them. Orn = NCCC[C@H](N)C(=O)O
# Experiments:
# [1] = test system: Staphylococcus aureus; experiment: Antibacterial activity against Staphylococcus aureus CMCC 26003 assessed as increase in intracellular ROS production incubated for 1 hr by DCFH-DA staining based assay; assay type: functional, organism-based
# [2] = test system: Staphylococcus aureus; experiment: Antibiofilm activity against Staphylococcus aureus CMCC 26003 assessed as biofilm eradication incubated for 24 hrs by crystal violet staining based analysis; assay type: functional, organism-based
# [3] = test system: Staphylococcus aureus; experiment: Antibiofilm activity against Staphylococcus aureus CMCC 26003 assessed as reduction in biofilm formation at 0.5 times MIC incubated for 24 hrs by crystal violet staining based analysis; assay type: functional; set-up: scale not given: the % may be the effect or the level left
# [4] = test system: Cell membrane; experiment: Induction of outer membrane permeabilization in Escherichia coli ATCC 25922 at 5 times MIC measured for 1 hr by NPN-dye based fluorescence analysis; assay type: subcellular
# [5] = test system: Acinetobacter baumannii; experiment: In vivo antibacterial activity against Acinetobacter baumannii ATCC19606 infected in BALB/c mouse assessed as reduction in bacterial load in liver at 15 mg/kg, ip measured after 12 hrs; assay type: functional, organism-based
# [6] = Acute toxicity in BALB/c mouse assessed as mortality at 10 mg/kg, iv measured for 24 hrs; assay type: organism-based; details: in vivo, read-out: Activity
# [7] = test system: Salmonella enteritidis; experiment: Antimicrobial activity against Salmonella enterica subsp. enterica serovar Enteritidis ATCC 14028 assessed as reduction in microbial growth incubated for 18 hrs by broth microdilution method; assay type: functional
# [8] = test system: Acinetobacter baumannii; experiment: Drug resistance, ratio of MIC for Acinetobacter baumannii ATCC1960 after 40 passages to MIC for Acinetobacter baumannii ATCC1960 during first exposure; assay type: functional
# [9] = test system: Escherichia coli; experiment: Drug resistance, ratio of MIC for Escherichia coli ATCC 25922 after 40 passages to MIC for Escherichia coli ATCC 25922 during first exposure; assay type: functional
# [10] = test system: Acinetobacter baumannii; experiment: Antipersister-activity against Acinetobacter baumannii ATCC 19606 assessed as elimination of persister cells at 8 times MIC preincubated adherent persistent cells with colistin incubation for 24 hrs; assay type: functional
# [11] = test system: Escherichia coli; experiment: Antimicrobial activity against Escherichia coli ATCC 25922 measured at 8 hrs in presence of mouse serum; assay type: functional, organism-based
# [12] = test system: Escherichia coli; experiment: Antibacterial activity against Escherichia coli ATCC 25922 at 1 times MIC in presence of 25 microg/ml exogenous DNA; assay type: functional, organism-based
# [13] = test system: Acinetobacter baumannii; experiment: In vivo antibacterial activity against Acinetobacter baumannii ATCC19606 infected in BALB/c mouse assessed as survival at 15 mg/kg, ip administered for 12 hrs and measured after 3 hrs; assay type: functional; details: time 15 hrs
# [14] = test system: Acinetobacter baumannii; experiment: Antibiofilm activity against Acinetobacter baumannii ATCC 19606 assessed as inhibition of biofilm formation at 4 to 8 times MIC incubated for 48 hrs by crystal violet staining based analysis; assay type: functional
# [15] = target: T1, Trypsin (Homo sapiens, UniProt P07477+P07478+P35030); experiment: Stability of compound assessed as trypsin (unknown origin) mediated drug degradation […] measured at 24 hrs by RP-HPLC analysis; assay type: ADME, protein assay; details: read-out: Activity
# [16] = test system: Staphylococcus aureus; experiment: Antibiofilm activity against Staphylococcus aureus CMCC 26003 assessed as biofilm eradication at 8 times MIC incubated for 24 hrs by crystal violet staining based analysis; assay type: functional
# [17] = test system: Acinetobacter baumannii; experiment: Antibiofilm activity against Acinetobacter baumannii ATCC 19606 assessed as inhibition of biofilm formation incubated for 48 hrs by crystal violet staining based analysis; assay type: functional, organism-based
# [18] = test system: Escherichia coli; experiment: Antimicrobial activity against Escherichia coli ATCC 25922 assessed as fold increase in MIC incubated for 18 hrs in presence of LPS; assay type: functional
# [19] = test system: Acinetobacter baumannii; experiment: Antimicrobial activity against Acinetobacter baumannii ATCC 19606 assessed as fold increase in MIC incubated for 18 hrs in presence of LPS; assay type: functional
# [20] = test system: Cell membrane; experiment: Induction of […] membrane permeabilization in Escherichia coli ATCC 25922 at 5 times MIC measured for 1 hr by NPN-dye based fluorescence analysis; assay type: subcellular
# [21] = test system: Peritoneal macrophage; experiment: Cytotoxicity against mouse Peritoneal macrophage cells assessed as survival rate at 100 microg/ml; assay type: functional; details: read-out: Survival
# [22] = target: T1, Trypsin; experiment: Stability of compound assessed as trypsin (unknown origin) mediated drug degradation […] measured at 6 hrs by RP-HPLC analysis; assay type: ADME, protein assay; details: read-out: Activity
# [23] = test system: HaCaT; experiment: Cytotoxicity against human HaCaT cells assessed as survival rate at 100 microg/ml; assay type: functional; details: read-out: Survival
# [24] = test system: Acinetobacter baumannii; experiment: Antimicrobial activity against Acinetobacter baumannii ATCC 19606 assessed as fold increase in MIC incubated for 18 hrs in presence of phosphatidylglycerol; assay type: functional
# [25] = test system: Acinetobacter baumannii; experiment: Antimicrobial activity against Acinetobacter baumannii ATCC 19606 assessed as fold increase in MIC incubated for 18 hrs in presence of cardiolipin; assay type: functional
# [26] = test system: Escherichia coli; experiment: Antimicrobial activity against Escherichia coli ATCC 25922 assessed as fold increase in MIC incubated for 18 hrs in presence of phosphatidylglycerol; assay type: functional
# [27] = test system: Escherichia coli; experiment: Antimicrobial activity against Escherichia coli ATCC 25922 assessed as fold increase in MIC incubated for 18 hrs in presence of cardiolipin; assay type: functional
# [28] = test system: Staphylococcus aureus; experiment: Antimicrobial activity against Staphylococcus aureus CMCC 26003 incubated for 18 hrs in presence of CCCP; assay type: functional, organism-based
# [29] = test system: Escherichia coli; experiment: Antimicrobial activity against Escherichia coli ATCC 25922 assessed as fold increase in MIC measured at 8 hrs in presence of mouse serum; assay type: functional
# [30] = test system: Escherichia coli; experiment: Antimicrobial activity against Escherichia coli ATCC 25922 incubated for 18 hrs in presence of CCCP; assay type: functional, organism-based
# [31] = test system: Staphylococcus aureus; experiment: Antimicrobial activity against Staphylococcus aureus CMCC 26003 assessed as fold increase in MIC measured at 8 hrs in presence of mouse serum; assay type: functional
# [32] = test system: Escherichia coli; experiment: Antimicrobial activity against Escherichia coli ATCC 25922 assessed as bacterial eradication at 5 times MIC measured within 30 mins; assay type: functional, organism-based
# [33] = test system: Staphylococcus aureus; experiment: Antimicrobial activity against Staphylococcus aureus CMCC 26003 assessed as bacterial eradication at 5 times MIC measured within 120 mins; assay type: functional, organism-based
# [34] = test system: Escherichia coli; experiment: Bactericidal activity against Escherichia coli ATCC 25922 at 5 times MIC measured within 120 mins; assay type: functional, organism-based
# [35] = test system: Cell membrane; experiment: Induction of cell membrane permeabilization in Escherichia coli ATCC 25922 by propidium iodide dye-based fluorescence assay; assay type: subcellular
# [36] = test system: Staphylococcus aureus; experiment: Antibiofilm activity against Staphylococcus aureus CMCC 26003 assessed as reduction in biofilm formation at 0.5 to 8 times MIC incubated for 24 hrs by crystal violet staining based analysis; assay type: functional; set-up: scale not given: the % may be the effect or the level left
# [37] = test system: RAW264.7; experiment: Cytotoxicity against mouse RAW264.7 cells upto 200 microg/ml by MTT assay; assay type: toxicity, cell-based; details: dose < 200 µg/ml
# [38] = test system: Cell membrane; experiment: Induction of cell membrane permeabilization in Escherichia coli ATCC 25922 at 2 times MIC measured for 1 hr by propidium iodide dye-based fluorescence assay; assay type: subcellular
# [39] = test system: Acinetobacter baumannii; experiment: Antipersister-activity against Acinetobacter baumannii ATCC 19606 assessed as elimination of persister cells at 4 times MIC preincubated adherent persistent cells with colistin incubation for 24 hrs; assay type: functional
# [40] = test system: Acinetobacter baumannii; experiment: In vivo antibacterial activity against Acinetobacter baumannii ATCC19606 infected in BALB/c mouse assessed as reduction in bacterial load in abdominal cavity at 15 mg/kg, ip measured after 12 hrs; assay type: functional, organism-based
# [41] = test system: Cell membrane; experiment: Induction of cell membrane permeabilization in Staphylococcus aureus CMCC 26003 at 5 times MIC measured for 1 hr by propidium iodide dye-based fluorescence assay; assay type: subcellular
SMILES,Activity [1],Activity [2],Activity [3],Activity [4],Activity [5],mortality at 24 h [6],MIC [7],Ratio [8],Ratio [9],Activity [12],Activity [13],inhibition (INH) [14],metabolised at 24 h [15],Activity [16],Activity [17],fold change (FC) [18],fold change (FC) [19],fold change (FC) [24],fold change (FC) [25],fold change (FC) [26],further results
CC[C@H](C)[C@H](NC(=O)[C@@H](CCCNC(=N)N)NC(=O)[C@H](CO)NC(=O)[C@H](Cc1c[nH]cn1)NC(=O)[C@@H](CCCNC(=N)N)NC(=O)[C@H](CC(C)C)NC(=O)[C@@H](NC(=O)[C@@H](CCCNC(=N)N)NC(=O)CNC(=O)[C@H](CC(C)C)NC(=O)[C@H](CCC(N)=O)NC(=O)[C@@H](CCCCN)NC(=O)[C@@H](CCCNC(=N)N)NC(=O)[C@@H](NC(=O)[C@@H](CCCCN)NC(=O)[C@@H](CCCCN)NC(=O)[C@@H](N)Cc1ccccc1)C(C)C)C(C)C)C(=O)N[C@H](C(=O)N[C@H](C(=O)NCC(=O)NCC(=O)N[C@H](CCCNC(=N)N)C(=O)N[C@@H](CCSC)C(=O)N[C@H](CCCNC(=N)N)C(=O)N[C@@H](Cc1ccccc1)C(=O)O)C(C)C)[C@@H](C)O,Dose-dependent-effect,Active,20%,100%,Active,0%,37.5 µg/mL,1,1,inactive,>60%,80%,< 60%,50%,Active,,,,,,Activity [10]: 97.1%; Activity [11]: inactive
CC[C@H](C)[C@H](NC(=O)[C@H](CCCNC(=N)N)NC(=O)[C@H](CO)NC(=O)[C@@H]1CSSC[C@H](N)C(=O)N[C@@H](Cc2ccccc2)C(=O)N[C@@H](CCCCN)C(=O)N[C@@H](CCCCN)C(=O)N[C@@H](C(C)C)C(=O)N[C@@H](CCCNC(=N)N)C(=O)N[C@@H](CCCCN)C(=O)N[C@@H](CCC(N)=O)C(=O)N[C@@H](CC(C)C)C(=O)NCC(=O)N[C@@H](CCCNC(=N)N)C(=O)N[C@@H](C(C)C)C(=O)N[C@@H](CC(C)C)C(=O)N[C@@H](CCCNC(=N)N)C(=O)N[C@@H](Cc2c[nH]cn2)C(=O)N1)C(=O)N[C@H](C(=O)N[C@H](C(=O)NCC(=O)NCC(=O)N[C@@H](CCCNC(=N)N)C(=O)N[C@@H](CCSC)C(=O)N[C@@H](CCCNC(=N)N)C(=O)N[C@@H](Cc1ccccc1)C(=O)O)C(C)C)[C@@H](C)O (H-CFKKVRKQLGRVLRHCSRITVGGRMRF-OH; disulfide 1-16),Dose-dependent-effect,Active,20%,,Active,0%,9.38 µg/mL,1,1,,>60%,80%,,74.3%,Active,4,4,16,8,16,Activity [20]: Active; viability at 100 µg/mL [21]: > 80%; metabolised at 6 h [22]: 68%; viability at 100 µg/mL [23]: > 80%; fold change (FC) [27]: 8
CC[C@H](C)[C@H](NC(=O)[C@H](CCCNC(=N)N)NC(=O)[C@H](CO)NC(=O)[C@H](Cc1c[nH]cn1)NC(=O)[C@H](CCCNC(=N)N)NC(=O)[C@H](CC(C)C)NC(=O)[C@@H](NC(=O)[C@H](CCCNC(=N)N)NC(=O)CNC(=O)[C@H](CC(C)C)NC(=O)[C@H](CCC(N)=O)NC(=O)[C@H](CCCCN)NC(=O)[C@H](CCCNC(=N)N)NC(=O)[C@@H](NC(=O)[C@H](CCCCN)NC(=O)[C@H](CCCCN)NC(=O)[C@@H](N)Cc1ccccc1)C(C)C)C(C)C)C(=O)N[C@H](C(=O)N[C@H](C(=O)NCC(=O)NCC(=O)N[C@@H](CCCNC(=N)N)C(=O)N[C@@H](CCSC)C(=O)N[C@@H](CCCNC(=N)N)C(=O)N[C@@H](Cc1ccccc1)C(=O)O)C(C)C)[C@@H](C)O,Dose-dependent-effect,Active,20%,,Active,0%,1.17 µg/mL,1,,,>60%,,,,Active,,,16,8,16,Activity [28]: Dose-dependent-effect; fold change (FC) [29]: 8; Activity [30]: Dose-dependent-effect; fold change (FC) [31]: 16; Activity [32]: Active; Activity [33]: Active; Activity [34]: Active; Activity [35]: Dose-dependent-effect; Activity [36]: 40%; Activity [37]: Non-toxic; fold change (FC) [27]: 8; Activity [38]: > 90%
CC[C@H](C)[C@H](NC(=O)[C@H](CCCN)NC(=O)[C@H](CO)NC(=O)[C@H](Cc1c[nH]cn1)NC(=O)[C@H](CCCN)NC(=O)[C@H](CC(C)C)NC(=O)[C@@H](NC(=O)[C@H](CCCN)NC(=O)CNC(=O)[C@H](CC(C)C)NC(=O)[C@H](CCC(N)=O)NC(=O)[C@H](CCCN)NC(=O)[C@H](CCCN)NC(=O)[C@@H](NC(=O)[C@H](CCCN)NC(=O)[C@H](CCCN)NC(=O)[C@@H](N)Cc1ccccc1)C(C)C)C(C)C)C(=O)N[C@H](C(=O)N[C@H](C(=O)NCC(=O)NCC(=O)N[C@@H](CCCN)C(=O)N[C@@H](CCSC)C(=O)N[C@@H](CCCN)C(=O)N[C@@H](Cc1ccccc1)C(=O)O)C(C)C)[C@@H](C)O (H-F[Orn][Orn]V[Orn][Orn]QLG[Orn]VL[Orn]HS[Orn]ITVGG[Orn]M[Orn]F-OH),Dose-dependent-effect,Active,20%,100%,Active,0%,37.5 µg/mL,1,1,inactive,>60%,,< 60%,50%,Active,16,16,,,,Activity [39]: 74.5%; Activity [35]: Dose-dependent-effect; Activity [37]: Non-toxic; Activity [40]: Active; Activity [41]: 24.6%; Activity [38]: > 90%
